In patent US10781224B2, “Bis(oxymethyl)phosphinic acid and biogenic metal salts thereof as regulators of plant growth and development” (priority 2016, dated 2020):

System: corn (Krasnodar 385 MV variety)
Experiment: Corn seed treatment with BHMPA salts: germinating power
Assay type: in vivo
Procedure: Experimental versions—soaking seeds in BHMPA solutions and solutions of BHMPA Ca, Mg, Na, Co, Mn, Cu, and Zn salts at 1·10^−6-1·10^−12% concentrations (doses). The studies were conducted in laboratory in Petri dishes; seed bed—two layers of filter paper. 50 seeds soaked in water (control) and in the solutions of the tested compounds (experimental) were placed into each dish. Wheat, corn, and rice seeds were exposed for one hour.
Seed germination energy and rate were calculated in percent as an arithmetic mean of the four experimental results (germination energy on the 4th day, wheat germination on the 8th day, rice and corn germination—on the 7th day). Germination was determined based on the germinating power indicators (length of the roots and sprouts and their wet and dry mass per 100 shoots).
The effect of pre-sowing seed treatment with the claimed BHMPA salts of biogenic metals was studied on winter wheat (Vershin variety), corn (Krasnodar 385 MV variety), and rice (Diamant variety).
The above data describe the seed viability only at the initial stage of germination, while the germination ability at the later stage of germination is defined by the initial germinating power. The method for the determination of the germinating power comprises measuring the height of the sprouts and primary roots, as well as the biomass and the dry mass thereof per 100 seedlings. [M. A. Kartuzova. Initial Germinating Power as Method of Biological Assessment of Seed Quality. Selection and Seed Farming, #2, 1953].

[1] = corn seeds, solution concentration 1 · 10^−10%

O=P([O-])(CO)CO.O=P([O-])(CO)CO.[Ca+2] [Ca-salt, Calcium BHMPA Salt]
optimum concentration for treating corn seeds before sowing (corn): 1·10^−10% | Length, root [1]: 6.6 cm | Length, root, + % to control [1]: 12% | Length, sprout [1]: 3.2 cm | Length, sprout, + % to control [1]: 18.5% | Mass, dry, root [1]: 2.03 g/100 plantlings | Mass, dry, root, + % to control [1]: 15% | Mass, dry, sprout [1]: 1.47 g/100 plantlings | Mass, dry, sprout, + % to control [1]: 8% | Mass, wet, root [1]: 9.63 g/100 plantlings | Mass, wet, root, + % to control [1]: 10% | Mass, wet, sprout [1]: 8.59 g/100 plantlings | Mass, wet, sprout, + % to control [1]: 21% | Length, root (corn, 1·10^−6% solution): 4.2 cm | Length, root, + % to control (corn, 1·10^−6% solution): −7% | Length, sprout (corn, 1·10^−6% solution): 2.5 cm | Length, sprout, + % to control (corn, 1·10^−6% solution): −4% | Mass, dry, root (corn, 1·10^−6% solution): 1.09 g/100 plantlings | Mass, dry, root, + % to control (corn, 1·10^−6% solution): −2% | Mass, dry, sprout (corn, 1·10^−6% solution): 0.63 g/100 plantlings | Mass, dry, sprout, + % to control (corn, 1·10^−6% solution): −9% | Mass, wet, root (corn, 1·10^−6% solution): 7.30 g/100 plantlings | Mass, wet, root, + % to control (corn, 1·10^−6% solution): −2.5% | Mass, wet, sprout (corn, 1·10^−6% solution): 4.21 g/100 plantlings | Mass, wet, sprout, + % to control (corn, 1·10^−6% solution): −6% | difference from the control in germinating power (corn, 1·10^−6%, 1·10^−7% and 1·10^−12% solutions): rather insignificant | Length, root (corn, 1·10^−7% solution): 4.6 cm | Length, root, + % to control (corn, 1·10^−7% solution): 2% | Length, sprout (corn, 1·10^−7% solution): 2.7 cm | Length, sprout, + % to control (corn, 1·10^−7% solution): 4% | Mass, dry, root (corn, 1·10^−7% solution): 1.20 g/100 plantlings | Mass, dry, root, + % to control (corn, 1·10^−7% solution): 8% | Mass, dry, sprout (corn, 1·10^−7% solution): 0.72 g/100 plantlings | Mass, dry, sprout, + % to control (corn, 1·10^−7% solution): 4% | Mass, wet, root (corn, 1·10^−7% solution): 7.75 g/100 plantlings | Mass, wet, root, + % to control (corn, 1·10^−7% solution): 3% | Mass, wet, sprout (corn, 1·10^−7% solution): 4.67 g/100 plantlings | Mass, wet, sprout, + % to control (corn, 1·10^−7% solution): 5% | Length, root (corn, 1·10^−8% solution): 4.8 cm | Length, root, + % to control (corn, 1·10^−8% solution): 7% | Length, sprout (corn, 1·10^−8% solution): 2.8 cm | Length, sprout, + % to control (corn, 1·10^−8% solution): 8% | Mass, dry, root (corn, 1·10^−8% solution): 1.24 g/100 plantlings | Mass, dry, root, + % to control (corn, 1·10^−8% solution): 12% | Mass, dry, sprout (corn, 1·10^−8% solution): 0.85 g/100 plantlings | Mass, dry, sprout, + % to control (corn, 1·10^−8% solution): 23% | Mass, wet, root (corn, 1·10^−8% solution): 8.13 g/100 plantlings | Mass, wet, root, + % to control (corn, 1·10^−8% solution): 8.5% | Mass, wet, sprout (corn, 1·10^−8% solution): 4.84 g/100 plantlings | Mass, wet, sprout, + % to control (corn, 1·10^−8% solution): 8.5% | Length, root (corn, 1·10^−9% solution): 5.2 cm | Length, root, + % to control (corn, 1·10^−9% solution): 15.5% | Length, sprout (corn, 1·10^−9% solution): 3.0 cm | Length, sprout, + % to control (corn, 1·10^−9% solution): 15% | Mass, dry, root (corn, 1·10^−9% solution): 1.26 g/100 plantlings | Mass, dry, root, + % to control (corn, 1·10^−9% solution): 13.5% | Mass, dry, sprout (corn, 1·10^−9% solution): 0.96 g/100 plantlings | Mass, dry, sprout, + % to control (corn, 1·10^−9% solution): 39% | Mass, wet, root (corn, 1·10^−9% solution): 9.18 g/100 plantlings | Mass, wet, root, + % to control (corn, 1·10^−9% solution): 22.5% | Mass, wet, sprout (corn, 1·10^−9% solution): 4.99 g/100 plantlings | Mass, wet, sprout, + % to control (corn, 1·10^−9% solution): 12% | Length, root (corn, 1·10^−10% solution): 5.4 cm | Length, root, + % to control (corn, 1·10^−10% solution): 20% | Length, sprout (corn, 1·10^−10% solution): 3.2 cm | Length, sprout, + % to control (corn, 1·10^−10% solution): 23% | Mass, dry, root (corn, 1·10^−10% solution): 1.34 g/100 plantlings | Mass, dry, root, + % to control (corn, 1·10^−10% solution): 21% | Mass, dry, sprout (corn, 1·10^−10% solution): 1.23 g/100 plantlings | Mass, dry, sprout, + % to control (corn, 1·10^−10% solution): 78% | Mass, wet, root (corn, 1·10^−10% solution): 9.82 g/100 plantlings | Mass, wet, root, + % to control (corn, 1·10^−10% solution): 31% | Mass, wet, sprout (corn, 1·10^−10% solution): 5.61 g/100 plantlings | Mass, wet, sprout, + % to control (corn, 1·10^−10% solution): 26% | Length, root (corn, 1·10^−11% solution): 5.2 cm | Length, root, + % to control (corn, 1·10^−11% solution): 15.5% | Length, sprout (corn, 1·10^−11% solution): 2.9 cm | Length, sprout, + % to control (corn, 1·10^−11% solution): 11.5% | Mass, dry, root (corn, 1·10^−11% solution): 1.30 g/100 plantlings | Mass, dry, root, + % to control (corn, 1·10^−11% solution): 17% | Mass, dry, sprout (corn, 1·10^−11% solution): 1.09 g/100 plantlings | Mass, dry, sprout, + % to control (corn, 1·10^−11% solution): 58% | Mass, wet, root (corn, 1·10^−11% solution): 9.44 g/100 plantlings | Mass, wet, root, + % to control (corn, 1·10^−11% solution): 26% | Mass, wet, sprout (corn, 1·10^−11% solution): 5.15 g/100 plantlings | Mass, wet, sprout, + % to control (corn, 1·10^−11% solution): 15% | Length, root (corn, 1·10^−12% solution): 4.6 cm | Length, root, + % to control (corn, 1·10^−12% solution): 2% | Length, sprout (corn, 1·10^−12% solution): 2.7 cm | Length, sprout, + % to control (corn, 1·10^−12% solution): 4% | Mass, dry, root (corn, 1·10^−12% solution): 1.23 g/100 plantlings | Mass, dry, root, + % to control (corn, 1·10^−12% solution): 11% | Mass, dry, sprout (corn, 1·10^−12% solution): 0.81 g/100 plantlings | Mass, dry, sprout, + % to control (corn, 1·10^−12% solution): 17% | Mass, wet, root (corn, 1·10^−12% solution): 8.65 g/100 plantlings | Mass, wet, root, + % to control (corn, 1·10^−12% solution): 15% | Mass, wet, sprout (corn, 1·10^−12% solution): 4.73 g/100 plantlings | Mass, wet, sprout, + % to control (corn, 1·10^−12% solution): 6%
